Results reported in the NIST ThermoML archive (doi:10.1016/j.fluid.2017.12.001).
Numbers after ± are expanded uncertainties.

Test: xn = mol fraction of the nth substance listed
Details: 100.9 kPa, Liquid; for viscosity: Concentric cylinders viscometry; for speed of sound: Single path-length method; for mass density: Vibrating tube method

CCCC(=O)[O-].CC[NH2+]CC [diethylammonium butanoate] + O
Details	mass density [kg/m3]	speed of sound [m/s]	viscosity [mPa·s]
283.15 K, x1 = 0.0122	–	–	2.24 ± 0.02
283.15 K, x1 = 0.0123	1003.65 ± 0.4	1576.3 ± 0.23	–
283.15 K, x1 = 0.0451	–	–	6.91 ± 0.04
283.15 K, x1 = 0.0453	1013.08 ± 0.4	1794.6 ± 0.4	–
283.15 K, x1 = 0.0999	–	–	19.26 ± 0.08
283.15 K, x1 = 0.1005	1011.54 ± 0.4	1814.6 ± 0.28	–
283.15 K, x1 = 0.143	–	–	32.03 ± 0.14
283.15 K, x1 = 0.1439	1001.71 ± 0.41	1786.4 ± 0.34	–
283.15 K, x1 = 0.2051	–	–	56.72 ± 0.23
283.15 K, x1 = 0.2067	989.91 ± 0.41	1733.5 ± 0.41	–
283.15 K, x1 = 0.3064	–	–	106.48 ± 1.2
283.15 K, x1 = 0.3096	976.25 ± 0.42	–	–
283.15 K, x1 = 0.4879	–	–	158.58 ± 2.6
283.15 K, x1 = 0.4951	956.67 ± 0.47	1577.4 ± 0.65	–
283.15 K, x1 = 0.6684	–	–	158.29 ± 2.7
283.15 K, x1 = 0.6812	941.81 ± 0.55	1516.2 ± 0.76	–
283.15 K, x1 = 0.7974	930.25 ± 0.62	1494.8 ± 0.84	–
283.15 K, x1 = 0.974	925.8 ± 0.77	1460.5 ± 0.98	130.18 ± 2.1
285.65 K, x1 = 0.0122	–	–	2.07 ± 0.02
285.65 K, x1 = 0.0451	–	–	6.16 ± 0.03
285.65 K, x1 = 0.0999	–	–	16.84 ± 0.07
285.65 K, x1 = 0.143	–	–	27.94 ± 0.12
285.65 K, x1 = 0.2051	–	–	49.1 ± 0.23
285.65 K, x1 = 0.3064	–	–	91.1 ± 0.83
285.65 K, x1 = 0.4879	–	–	135.58 ± 2
285.65 K, x1 = 0.6684	–	–	135.69 ± 2.1
285.65 K, x1 = 0.974	–	–	112.13 ± 1.6
288.15 K, x1 = 0.0122	–	–	1.91 ± 0.02
288.15 K, x1 = 0.0123	1002.55 ± 0.4	1586.3 ± 0.23	–
288.15 K, x1 = 0.0451	–	–	5.5 ± 0.03
288.15 K, x1 = 0.0453	1010.64 ± 0.4	1786.6 ± 0.26	–
288.15 K, x1 = 0.0999	–	–	14.79 ± 0.06
288.15 K, x1 = 0.1005	1007.9 ± 0.4	1802.4 ± 0.29	–
288.15 K, x1 = 0.143	–	–	24.41 ± 0.11
288.15 K, x1 = 0.1439	996.76 ± 0.41	1773 ± 0.34	–
288.15 K, x1 = 0.2051	–	–	42.55 ± 0.2
288.15 K, x1 = 0.2067	985.95 ± 0.41	1718.7 ± 0.41	–
288.15 K, x1 = 0.3064	–	–	78.15 ± 0.57
288.15 K, x1 = 0.3096	972.8 ± 0.42	–	–
288.15 K, x1 = 0.4879	–	–	116.04 ± 1.5
288.15 K, x1 = 0.4951	952.3 ± 0.47	1561.4 ± 0.65	–
288.15 K, x1 = 0.6684	–	–	116.61 ± 1.6
288.15 K, x1 = 0.6812	938.34 ± 0.55	1499.7 ± 0.75	–
288.15 K, x1 = 0.7974	926.65 ± 0.62	1479.8 ± 0.84	–
288.15 K, x1 = 0.974	922.1 ± 0.77	1448.3 ± 0.98	96.9 ± 1.3
290.65 K, x1 = 0.0122	–	–	1.77 ± 0.02
290.65 K, x1 = 0.0451	–	–	4.96 ± 0.03
290.65 K, x1 = 0.0999	–	–	13.09 ± 0.06
290.65 K, x1 = 0.143	–	–	21.48 ± 0.09
290.65 K, x1 = 0.2051	–	–	37.08 ± 0.17
290.65 K, x1 = 0.3064	–	–	67.44 ± 0.39
290.65 K, x1 = 0.4879	–	–	99.81 ± 1.1
290.65 K, x1 = 0.6684	–	–	100.54 ± 1.2
290.65 K, x1 = 0.974	–	–	84.07 ± 1
293.15 K, x1 = 0.0122	–	–	1.64 ± 0.02
293.15 K, x1 = 0.0123	1001.45 ± 0.4	1594.8 ± 0.23	–
293.15 K, x1 = 0.0451	–	–	4.49 ± 0.03
293.15 K, x1 = 0.0453	1008.2 ± 0.4	1779.5 ± 0.26	–
293.15 K, x1 = 0.0999	–	–	11.64 ± 0.05
293.15 K, x1 = 0.1005	1004.13 ± 0.4	1789.3 ± 0.29	–
293.15 K, x1 = 0.143	–	–	18.97 ± 0.08
293.15 K, x1 = 0.1439	992.35 ± 0.41	1759.3 ± 0.34	–
293.15 K, x1 = 0.2051	–	–	32.47 ± 0.15
293.15 K, x1 = 0.2067	984.2 ± 0.41	1705.2 ± 0.41	–
293.15 K, x1 = 0.3064	–	–	58.44 ± 0.27
293.15 K, x1 = 0.3096	969.35 ± 0.42	1629.1 ± 0.49	–
293.15 K, x1 = 0.4879	–	–	86.09 ± 0.8
293.15 K, x1 = 0.4951	949.58 ± 0.47	1539.3 ± 0.63	–
293.15 K, x1 = 0.6684	–	–	87.06 ± 0.9
293.15 K, x1 = 0.6812	937.26 ± 0.55	1485.3 ± 0.75	–
293.15 K, x1 = 0.7974	923.05 ± 0.62	1464.7 ± 0.84	–
293.15 K, x1 = 0.974	918.5 ± 0.76	1433.9 ± 0.98	73.19 ± 0.81
295.65 K, x1 = 0.0122	–	–	1.53 ± 0.02
295.65 K, x1 = 0.0451	–	–	4.05 ± 0.03
295.65 K, x1 = 0.0999	–	–	10.38 ± 0.05
295.65 K, x1 = 0.143	–	–	16.84 ± 0.07
295.65 K, x1 = 0.2051	–	–	28.55 ± 0.13
295.65 K, x1 = 0.3064	–	–	50.88 ± 0.21
295.65 K, x1 = 0.4879	–	–	74.58 ± 0.58
295.65 K, x1 = 0.6684	–	–	75.69 ± 0.69
295.65 K, x1 = 0.974	–	–	63.97 ± 0.66
298.15 K, x1 = 0.0122	–	–	1.43 ± 0.02
298.15 K, x1 = 0.0123	1000.1 ± 0.4	1601.8 ± 0.22	–
298.15 K, x1 = 0.0451	–	–	3.69 ± 0.03
298.15 K, x1 = 0.0453	1005.56 ± 0.4	1770.9 ± 0.25	–
298.15 K, x1 = 0.0999	–	–	9.31 ± 0.04
298.15 K, x1 = 0.1005	1000.56 ± 0.4	1776.6 ± 0.29	–
298.15 K, x1 = 0.143	–	–	15.02 ± 0.07
298.15 K, x1 = 0.1439	988.22 ± 0.41	1745.3 ± 0.34	–
298.15 K, x1 = 0.2051	–	–	25.19 ± 0.12
298.15 K, x1 = 0.2067	979.99 ± 0.41	1690.3 ± 0.41	–
298.15 K, x1 = 0.3064	–	–	44.32 ± 0.23
298.15 K, x1 = 0.3096	965.6 ± 0.42	1613.5 ± 0.49	–
298.15 K, x1 = 0.4879	–	–	64.82 ± 0.43
298.15 K, x1 = 0.4951	945.79 ± 0.47	1523.9 ± 0.63	–
298.15 K, x1 = 0.6684	–	–	66.04 ± 0.53
298.15 K, x1 = 0.6812	933.71 ± 0.55	1468.9 ± 0.75	–
298.15 K, x1 = 0.7974	919.45 ± 0.62	1455.8 ± 0.84	–
298.15 K, x1 = 0.974	914.7 ± 0.76	1417.5 ± 0.98	56.14 ± 0.56
300.65 K, x1 = 0.0122	–	–	1.34 ± 0.02
300.65 K, x1 = 0.0451	–	–	3.36 ± 0.03
300.65 K, x1 = 0.0999	–	–	8.4 ± 0.04
300.65 K, x1 = 0.143	–	–	13.44 ± 0.06
300.65 K, x1 = 0.2051	–	–	22.34 ± 0.1
300.65 K, x1 = 0.3064	–	–	38.93 ± 0.2
300.65 K, x1 = 0.4879	–	–	56.68 ± 0.33
300.65 K, x1 = 0.6684	–	–	57.86 ± 0.43
300.65 K, x1 = 0.974	–	–	49.5 ± 0.51
303.15 K, x1 = 0.0122	–	–	1.26 ± 0.02
303.15 K, x1 = 0.0123	998.8 ± 0.4	1607.5 ± 0.22	–
303.15 K, x1 = 0.0451	–	–	3.08 ± 0.02
303.15 K, x1 = 0.0453	1002.83 ± 0.4	1762.1 ± 0.25	–
303.15 K, x1 = 0.0999	–	–	7.62 ± 0.04
303.15 K, x1 = 0.1005	997.23 ± 0.4	1763.5 ± 0.29	–
303.15 K, x1 = 0.143	–	–	12.08 ± 0.05
303.15 K, x1 = 0.1439	984.45 ± 0.41	1731.1 ± 0.34	–
303.15 K, x1 = 0.2051	–	–	19.91 ± 0.09
303.15 K, x1 = 0.2067	976.3 ± 0.41	1675.2 ± 0.41	–
303.15 K, x1 = 0.3064	–	–	34.33 ± 0.18
303.15 K, x1 = 0.3096	960.9 ± 0.42	1597.6 ± 0.49	–
303.15 K, x1 = 0.4879	–	–	49.68 ± 0.32
303.15 K, x1 = 0.4951	941.96 ± 0.47	1509.1 ± 0.63	–
303.15 K, x1 = 0.6684	–	–	50.88 ± 0.36
303.15 K, x1 = 0.6812	930.52 ± 0.55	1452.3 ± 0.75	–
303.15 K, x1 = 0.7974	915.75 ± 0.62	1439.9 ± 0.84	–
303.15 K, x1 = 0.974	910.9 ± 0.76	1400.2 ± 0.98	43.73 ± 0.45
305.65 K, x1 = 0.0122	–	–	1.19 ± 0.02
305.65 K, x1 = 0.0451	–	–	2.84 ± 0.02
305.65 K, x1 = 0.0999	–	–	6.89 ± 0.04
305.65 K, x1 = 0.143	–	–	10.89 ± 0.05
305.65 K, x1 = 0.2051	–	–	17.8 ± 0.08
305.65 K, x1 = 0.3064	–	–	30.43 ± 0.16
305.65 K, x1 = 0.4879	–	–	43.74 ± 0.28
305.65 K, x1 = 0.6684	–	–	44.91 ± 0.35
305.65 K, x1 = 0.974	–	–	38.76 ± 0.4
308.15 K, x1 = 0.0122	–	–	1.12 ± 0.02
308.15 K, x1 = 0.0123	–	1611.9 ± 0.22	–
308.15 K, x1 = 0.0451	–	–	2.62 ± 0.02
308.15 K, x1 = 0.0453	–	1753.1 ± 0.25	–
308.15 K, x1 = 0.0999	–	–	6.28 ± 0.03
308.15 K, x1 = 0.1005	–	1750.2 ± 0.29	–
308.15 K, x1 = 0.143	–	–	9.83 ± 0.05
308.15 K, x1 = 0.1439	–	1716.8 ± 0.35	–
308.15 K, x1 = 0.2051	–	–	15.99 ± 0.07
308.15 K, x1 = 0.3064	–	–	27.04 ± 0.14
308.15 K, x1 = 0.4879	–	–	38.47 ± 0.24
308.15 K, x1 = 0.6684	–	–	39.77 ± 0.31
308.15 K, x1 = 0.974	–	–	34.5 ± 0.36
